Source: ChEMBL document CHEMBL3885861, “Open TG-GATES”

Organism: Rattus norvegicus
Experiment: Open TG-GATES - Regimen: Daily Repeat
Format: toxicity, organism-based, Sprague-Dawley
Set-up: regimen Daily Repeat, gender Male, age 6 weeks
Details: in vivo, po, 100 mg/kg, […], route gavage, dose level Middle; for KIDNEY_L / KIDNEY_R / KIDNEY_TOTAL: tissue Kidney; for LIVER: tissue Liver; for A/G / ALP / ALT / AST / BUN / CRE / Ca / Cl / DBIL / GLC / IP / K / LDH / Na / PL / RALB / TBIL / TC / TG / TP / gamma-GTP: tissue Plasma

Compound `CCCNC(=O)NS(=O)(=O)c1ccc(Cl)cc1` [CHLORPROPAMIDE] has a Lym (tissue Blood, time 28 day) of 76.4%, an MCH (tissue Blood, time 28 day) of 19.4 pg and an MCHC (tissue Blood, time 28 day) of 33.5%. For the same compound, the MCV (tissue Blood, time 28 day) was 57.8 fL, the Mono (tissue Blood, time 28 day) was 2.6% and the Neu (tissue Blood, time 28 day) was 18.6%. For the same compound, the PT (tissue Blood, time 28 day) was 16.2 s, the Plat (tissue Blood, time 28 day) was 107.8 x10_4/uL and the RBC (tissue Blood, time 28 day) was 751 x10_4/ul. The Ret (tissue Blood, time 28 day) was 2.5%, the WBC (tissue Blood, time 28 day) was 90.2 x10_2/uL and the KIDNEY_L (time 7 day) was 1 g. For the same compound, the KIDNEY_R (time 7 day) was 1 g, the KIDNEY_TOTAL (time 7 day) was 2 g and the KIDNEY_L (time 14 day) was 1.2 g. For the same compound, the KIDNEY_R (time 14 day) was 1.2 g, the KIDNEY_TOTAL (time 14 day) was 2.4 g and the KIDNEY_L (time 28 day) was 1.2 g. It also gave a KIDNEY_R (time 28 day) of 1.3 g, a KIDNEY_TOTAL (time 28 day) of 2.5 g and an LIVER (time 7 day) of 11.4 g. For the same compound, the LIVER (time 14 day) was 13.6 g, the LIVER (time 28 day) was 14.2 g and the A/G (time 7 day) was 0.8. The ALP (time 7 day) was 1392.6 IU/L, the ALT (time 7 day) was 50 IU/L and the AST (time 7 day) was 74.2 IU/L. It also gave a BUN (time 7 day) of 18.2 mg/dL, a CRE (time 7 day) of 0.2 mg/dL and a Ca (time 7 day) of 10.8 mg/dL. For the same compound, the Cl (time 7 day) was 107 meq/L, the DBIL (time 7 day) was 0.01 mg/dL and the GLC (time 7 day) was 194.2 mg/dL. It also gave an IP (time 7 day) of 7.4 mg/dL, a K (time 7 day) of 3.6 meq/L and an LDH (time 7 day) of 81.8 IU/L. The Na (time 7 day) was 144.4 meq/L, the PL (time 7 day) was 162.2 mg/dL and the RALB (time 7 day) was 2.6 g/dL. The TBIL (time 7 day) was 0.03 mg/dL, the TC (time 7 day) was 85.4 mg/dL and the TG (time 7 day) was 105.4 mg/dL. The TP (time 7 day) was 5.7 g/dL, the gamma-GTP (time 7 day) was 1 IU/L and the A/G (time 14 day) was 0.8. For the same compound, the ALP (time 14 day) was 1782.8 IU/L, the ALT (time 14 day) was 41 IU/L and the AST (time 14 day) was 63 IU/L. The BUN (time 14 day) was 18.8 mg/dL, the CRE (time 14 day) was 0.2 mg/dL and the Ca (time 14 day) was 10.6 mg/dL. It also gave a Cl (time 14 day) of 105.8 meq/L, a DBIL (time 14 day) of 0.01 mg/dL and a GLC (time 14 day) of 208.4 mg/dL. The IP (time 14 day) was 7.7 mg/dL, the K (time 14 day) was 3.5 meq/L and the LDH (time 14 day) was 99.6 IU/L. The Na (time 14 day) was 144.6 meq/L, the PL (time 14 day) was 170.2 mg/dL and the RALB (time 14 day) was 2.7 g/dL. It also gave a TBIL (time 14 day) of 0.02 mg/dL, a TC (time 14 day) of 77.2 mg/dL and a TG (time 14 day) of 175 mg/dL. It also gave a TP (time 14 day) of 5.9 g/dL, a gamma-GTP (time 14 day) of 1 IU/L and an A/G (time 28 day) of 0.8. For the same compound, the ALP (time 28 day) was 1238 IU/L, the ALT (time 28 day) was 40.2 IU/L and the AST (time 28 day) was 64 IU/L. For the same compound, the BUN (time 28 day) was 16.2 mg/dL, the CRE (time 28 day) was 0.2 mg/dL and the Ca (time 28 day) was 10.4 mg/dL. The Cl (time 28 day) was 107.4 meq/L, the DBIL (time 28 day) was 0.008 mg/dL and the GLC (time 28 day) was 196.6 mg/dL. The IP (time 28 day) was 6.5 mg/dL, the K (time 28 day) was 3.2 meq/L and the LDH (time 28 day) was 72.6 IU/L. It also gave a Na (time 28 day) of 144.8 meq/L, a PL (time 28 day) of 158.8 mg/dL and an RALB (time 28 day) of 2.7 g/dL. It also gave a TBIL (time 28 day) of 0.016 mg/dL, a TC (time 28 day) of 73.4 mg/dL and a TG (time 28 day) of 149.6 mg/dL. For the same compound, the TP (time 28 day) was 6 g/dL and the gamma-GTP (time 28 day) was 1 IU/L.
